Test results reported in PubChem BioAssay AID652002 (Sanford-Burnham Center for Chemical Genomics, 2013).
Activity calls are given as the source filed them. No rule for the calls is given here.

What was measured:
[1] = compound enhancement of TRAIL-induced cell killing – NB7 cells plus caspase-8, luminescence, panel, dose response (AID 652002); conditions: NB7 neuroblastoma +caspase-8, no TRAIL, compound-alone cytotoxicity counter-screen, luminescence viability, NB7+Caspase-8
[2] = molecular target: NB7+Caspase-8; experiment: as above; conditions: NB7 neuroblastoma +caspase-8, TRAIL sensitization, luminescence viability, with TRAIL
[3] = molecular target: Tumor necrosis factor receptor superfamily member 10B (Homo sapiens) (UniProt O14763); experiment: as above; conditions: NB7 neuroblastoma +caspase-8, TRAIL sensitization, luminescence viability; NB7+Caspase-8; with TRAIL, mean of runs
Chain of Tumor necrosis factor receptor superfamily member 10B (Homo sapiens) (O14763 whole entry, looked up): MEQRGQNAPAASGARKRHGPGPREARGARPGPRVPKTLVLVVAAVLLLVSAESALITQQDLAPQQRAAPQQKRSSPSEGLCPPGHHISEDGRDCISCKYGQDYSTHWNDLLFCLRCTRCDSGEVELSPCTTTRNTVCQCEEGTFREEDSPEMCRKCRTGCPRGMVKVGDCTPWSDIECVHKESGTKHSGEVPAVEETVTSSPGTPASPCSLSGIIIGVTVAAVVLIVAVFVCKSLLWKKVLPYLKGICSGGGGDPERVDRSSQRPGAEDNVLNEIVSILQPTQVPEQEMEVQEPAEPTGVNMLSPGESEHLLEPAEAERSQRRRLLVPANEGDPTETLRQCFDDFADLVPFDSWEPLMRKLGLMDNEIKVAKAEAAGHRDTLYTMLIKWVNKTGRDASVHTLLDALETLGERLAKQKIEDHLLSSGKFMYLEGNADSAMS

[4] = run 1, single replicate panel EC50
[5] = run 2, single replicate panel EC50

Structure (SMILES) | EC50 ([1]; mean of runs) | EC50 [1, 4] [µM] | EC50 [1, 5] [µM] | EC50 [2, 4] [µM] | EC50 [2, 5] [µM] | EC50 [3]
O=c1[nH]c(N/N=C\c2ccc3c(c2)OCO3)nc2ccccc12 | inactive | > 12.5 | 10.9 | > 12.5 | 10.1 | inactive
COc1cccc(NC(=O)Nc2nccc(C)n2)c1 | > 12.5 µM (inactive) | > 12.5 | > 12.5 | > 12.5 | 4.33 | inactive
C#CC(=O)CC1(CN(Cc2ccccc2)C(=O)OC(C)(C)C)CCCCC1 | inactive | 7.26 | 1.52 | 3.12 | 7.51 | inactive
O=Nc1ccc(NO)c2ccccc12 | > 12.5 µM (inactive) | > 12.5 | > 12.5 | > 12.5 | 6.54 | inactive
CN1C[C@@H]2[C@@H]3C(=O)N(Cc4ccccc4)C(=O)[C@@H]3[C@](Cc3ccccc3)(C1=O)N2C(=O)c1ccc(C(C)(C)C)cc1 | > 12.5 µM (inactive) | > 12.5 | > 12.5 | > 12.5 | > 12.5 | > 12.5 µM (inactive)
O=C(Nc1ccc2c(c1)OCO2)c1ccc2c(c1)OCO2 | inactive | 6.92 | 11.2 | > 12.5 | 5.17 | inactive
COc1ccccc1/C=C/C=N/n1c(-c2cc(-c3ccccc3)n[nH]2)n[nH]c1=S | > 12.5 µM (inactive) | > 12.5 | > 12.5 | > 12.5 | > 12.5 | > 12.5 µM (inactive)
CC(C)CCn1c(=O)c(C(=O)Nc2ccccc2S(N)(=O)=O)c(O)c2ccccc21 | > 12.5 µM (inactive) | > 12.5 | > 12.5 | > 12.5 | > 12.5 | > 12.5 µM (inactive)
Nc1ccccc1C(=O)NN=Cc1cccc([N+](=O)[O-])c1 | inactive | > 12.5 | 9.8 | > 12.5 | 7.52 | inactive
CCN(CC)c1ccc(NC(=O)Nc2ccccc2)cc1 | inactive | > 12.5 | 10.9 | > 12.5 | 8.27 | inactive
CN(C)CCCN(C(=O)c1ccc(S(=O)(=O)N2CCCc3ccccc32)cc1)c1nc2ccc(F)cc2s1 | > 12.5 µM (inactive) | > 12.5 | > 12.5 | > 12.5 | > 12.5 | > 12.5 µM (inactive)
COc1ccc(-c2nc(-c3ccc(NC(=O)c4ccncc4)cc3)no2)cc1OC | > 12.5 µM (inactive) | > 12.5 | > 12.5 | > 12.5 | > 12.5 | > 12.5 µM (inactive)
Cc1ccc(N=C/C(C(=O)C(F)(F)F)=C(\O)c2cccs2)cc1 | inactive | > 12.5 | 1.87 | 6.11 | 4 | inactive
C#Cc1ccc(NC(=O)C2(C)CCN2C(=O)Cc2ccc(C(C)C)cc2)cc1 (stereo not given) | inactive | > 12.5 | 8.26 | > 12.5 | > 12.5 | > 12.5 µM (inactive)
Cc1c(P(=S)(c2ccccc2)c2ccccc2)[n+]2ccccc2n1CCc1ccccc1 | > 12.5 µM (inactive) | > 12.5 | > 12.5 | > 12.5 | > 12.5 | > 12.5 µM (inactive)
O=C(Nc1ccc(Br)cc1F)c1ccc2c(c1)OCCO2 | inactive | > 12.5 | 11.2 | > 12.5 | 12.5 | inactive
COC(=O)CSc1nc2cc(C)ccc2cc1C#N | > 12.5 µM (inactive) | > 12.5 | > 12.5 | > 12.5 | 7.44 | inactive
Cc1ccc(-n2nnc(-c3cccnc3Cl)n2)cc1 | > 12.5 µM (inactive) | > 12.5 | > 12.5 | > 12.5 | > 12.5 | > 12.5 µM (inactive)
O=C1c2ccc3c4c(ccc(c24)C(=O)N1c1cccc(O)c1)C(=O)N(c1cccc(O)c1)C3=O | > 12.5 µM (inactive) | > 12.5 | > 12.5 | 2.35 | 12.4 | inactive
COc1ccc(/C(C)=N/Nc2nncc3ccccc23)cc1 | > 12.5 µM (inactive) | > 12.5 | > 12.5 | 7.33 | > 12.5 | inactive

Structure (SMILES) | EC50 ([1]; mean of runs) | EC50 [1, 4] [µM] | EC50 [1, 5] [µM] | EC50 [2, 4] [µM] | EC50 [2, 5] [µM] | EC50 [3]
CCOc1ccc(/C=C/C(=O)Nc2cccc(C(C)=O)c2)cc1 | > 12.5 µM (inactive) | > 12.5 | > 12.5 | > 12.5 | > 12.5 | > 12.5 µM (inactive)
COc1cc(NC(=O)c2[nH]cnc2C(N)=O)cc(C(=O)Nc2cccc(C(F)(F)F)c2)c1 | inactive | > 12.5 | 10.4 | > 12.5 | 8.91 | inactive
Cc1ccc(NC(=O)CSc2nc3ccc(Nc4nc(N5CCOCC5)nc(N5CCOCC5)n4)cc3s2)cc1 | > 12.5 µM (inactive) | > 12.5 | > 12.5 | > 12.5 | > 12.5 | > 12.5 µM (inactive)
COc1ccc(-c2cc(C(=O)OCC(=O)Nc3ccc4c(c3)OCO4)c3ccccc3n2)cc1 | inactive | 6.39 | 6.23 | > 12.5 | 7.82 | inactive
CCOC(=O)c1sc(NC(=O)c2cc(-c3ccccc3C)nc3ccccc23)c(C#N)c1C | > 12.5 µM (inactive) | > 12.5 | > 12.5 | > 12.5 | > 12.5 | > 12.5 µM (inactive)
Cc1cccc2nc(=S)n(C(=O)c3ccco3)n12 | > 12.5 µM (inactive) | > 12.5 | > 12.5 | > 12.5 | > 12.5 | > 12.5 µM (inactive)
O=C(NC(=O)c1ccccc1)Nc1ccccc1 | > 12.5 µM (inactive) | > 12.5 | > 12.5 | > 12.5 | > 12.5 | > 12.5 µM (inactive)
O=C(Nc1ccc(C(=O)O)cc1)/C(=C\C=C\c1ccccc1)NC(=O)c1ccccc1Cl | inactive | 7.94 | > 12.5 | > 12.5 | 3.5 | inactive
Fc1ccc(-c2cnn3c(-c4ccncc4)ccnc23)cc1 | > 12.5 µM (inactive) | > 12.5 | > 12.5 | > 12.5 | > 12.5 | > 12.5 µM (inactive)
Cc1cc(NC(=O)c2cncc(Br)c2)ccc1NC(=O)c1cc2ccccc2o1 | > 12.5 µM (inactive) | > 12.5 | > 12.5 | > 12.5 | 9.86 | inactive
CC(=O)c1ccc(NC(=O)Nc2cccnc2)cc1 | inactive | 11.4 | 10.2 | > 12.5 | 9.72 | inactive
O=C(ONC1=NCCCCC1)c1ccc(Cl)cc1 | inactive | > 12.5 | 7.44 | > 12.5 | > 12.5 | > 12.5 µM (inactive)
COc1cc(SC#N)ccc1N=Cc1c(C)[nH]n(-c2ccc(Cl)cc2)c1=O | > 12.5 µM (inactive) | > 12.5 | > 12.5 | > 12.5 | > 12.5 | > 12.5 µM (inactive)
Cc1nc2cc(NC(=O)c3ccco3)ccc2n1C | inactive | > 12.5 | 11.5 | > 12.5 | > 12.5 | > 12.5 µM (inactive)
O=C(Nc1ccc2[nH]ccc2c1)c1cccs1 | inactive | 7.12 | 4.71 | 3.97 | 5.19 | inactive
CCOC(=O)[C@]12Cc3cc4ccccc4cc3[C@H]1N(Cc1ccccc1)C(=O)c1ccccc12 | > 12.5 µM (inactive) | > 12.5 | > 12.5 | > 12.5 | > 12.5 | > 12.5 µM (inactive)
COc1cccc(NC(=O)c2ccc3c(c2)OCO3)c1 | inactive | 8.96 | 11.9 | 7.39 | 11 | inactive
CCCCCc1cc(=O)oc2c(C(CCN(CC)CC)c3cc(OC)c(OC)c(OC)c3)c(OC)cc(OC)c12 (stereo not given) | > 12.5 µM (inactive) | > 12.5 | > 12.5 | > 12.5 | 10.3 | inactive
COc1ccc2sc(-c3ccc(S(C)(=O)=O)cc3)c(C#Cc3cncn3C)c2c1 | > 12.5 µM (inactive) | > 12.5 | > 12.5 | > 12.5 | > 12.5 | > 12.5 µM (inactive)
O=C(Nc1ccc2ccccc2c1)c1ccc(Cl)cc1 | > 12.5 µM (inactive) | > 12.5 | > 12.5 | > 12.5 | > 12.5 | > 12.5 µM (inactive)
